ChEMBL document CHEMBL5724914, “Linking interpersonal differences in gut microbiota composition and drug biotransformation activity” (2024)

Tests used:
[1] = (§1) The drug is tested on Z-027 corresponding to metagenome with ENA study accession number: PRJEB37062 and ENA sample accession number: ERS12561826 for biotransformation under anaerobic condition. The drug concentrations were measured over 9 timepoints collected between 0 and 24 hours of incubation by liquid-chromatography-coupled mass spectrometry (LC–MS); details: 2 µM
[2] = as §1, with “Z-026” for “Z-027”, “ERS12561825” for “ERS12561826”; details: 2 µM
[3] = (§2) The drug is tested on Z-020 corresponding to rabbit gut metagenome with ENA study accession number: PRJEB37062 and ENA sample accession number: ERS12561819 for biotransformation under anaerobic condition. The drug concentrations were measured over 9 timepoints collected between 0 and 24 hours of incubation by liquid-chromatography-coupled mass spectrometry (LC–MS); details: 2 µM
[4] = as §2, with “Z-013” for “Z-020”, “ERS12561813” for “ERS12561819”; details: 2 µM
[5] = as §1, with “Z-010” for “Z-027”, “ERS12561810” for “ERS12561826”; details: 2 µM
[6] = as §1, with “Z-004” for “Z-027”, “ERS12561804” for “ERS12561826”; details: 2 µM
[7] = as §2, with “Z-003” for “Z-020”, “pig” for “rabbit”, “ERS12561803” for “ERS12561819”; details: 2 µM
[8] = as §2, with “WLS-370” for “Z-020”, “human” for “rabbit”, “ERS12561793” for “ERS12561819”; details: 2 µM
[9] = as §2, with “WLS-350” for “Z-020”, “human” for “rabbit”, “ERS12561789” for “ERS12561819”; details: 2 µM
[10] = as §2, with “WLS-240” for “Z-020”, “human” for “rabbit”, “ERS12561773” for “ERS12561819”; details: 2 µM
[11] = as §2, with “WLS-220” for “Z-020”, “human” for “rabbit”, “ERS12561769” for “ERS12561819”; details: 2 µM
[12] = human gut metagenome, 24 h, 2 µM
[13] = human gut metagenome, 24 h, 2 µM; remark: listed apart in the source
[14] = human gut metagenome, 24 h, 2 µM; remark: listed apart in the source
[15] = human gut metagenome, 24 h, 2 µM; remark: listed apart in the source
[16] = human gut metagenome, 24 h, 2 µM; remark: listed apart in the source
[17] = human gut metagenome, 24 h, 2 µM; remark: listed apart in the source
[18] = human gut metagenome, 24 h, 2 µM; remark: listed apart in the source
[19] = human gut metagenome, 24 h, 2 µM; remark: listed apart in the source
[20] = human gut metagenome, 24 h, 2 µM; remark: listed apart in the source
Also: call rule not given here.

Bacterial Biotransformation [1] | Bacterial Biotransformation [2] | Bacterial Biotransformation [3] | Bacterial Biotransformation [4] | Bacterial Biotransformation [5] | Bacterial Biotransformation [6] | Bacterial Biotransformation [7] | Bacterial Biotransformation [8] | Bacterial Biotransformation [9] | Bacterial Biotransformation [10] | Bacterial Biotransformation [11] | Bacterial Biotransformation [12] | Bacterial Biotransformation [13] | Bacterial Biotransformation [14] | Bacterial Biotransformation [15] | Bacterial Biotransformation [16] | Bacterial Biotransformation [17] | Bacterial Biotransformation [18] | Bacterial Biotransformation [19] | Bacterial Biotransformation [20] | SMILES
Compound NOT metabolized | Compound NOT metabolized | Compound NOT metabolized | Compound NOT metabolized | Compound NOT metabolized | Compound NOT metabolized | Compound NOT metabolized | Compound NOT metabolized | Compound NOT metabolized | Compound metabolized | Compound metabolized | Compound NOT metabolized | Compound NOT metabolized | Compound NOT metabolized | Compound metabolized | Compound NOT metabolized | Compound NOT metabolized | Compound metabolized | Compound metabolized | Compound NOT metabolized | COc1cc(NC(C)CCCN)c2ncccc2c1.O=P(O)(O)O.O=P(O)(O)O (stereo not given) [PRIMAQUINE PHOSPHATE]
Compound NOT metabolized | Compound NOT metabolized | Compound NOT metabolized | Compound NOT metabolized | Compound metabolized | Compound NOT metabolized | Compound NOT metabolized | Compound NOT metabolized | Compound NOT metabolized | Compound metabolized | Compound metabolized | Compound NOT metabolized | Compound NOT metabolized | Compound metabolized | Compound metabolized | Compound NOT metabolized | Compound metabolized | Compound metabolized | Compound metabolized | Compound metabolized | C=C[C@H]1CN2CC[C@H]1C[C@H]2[C@H](O)c1ccnc2ccc(OC)cc12.C=C[C@H]1CN2CC[C@H]1C[C@H]2[C@H](O)c1ccnc2ccc(OC)cc12.O.O.O=S(=O)(O)O [QUININE SULFATE]
Compound NOT metabolized | Compound NOT metabolized | Compound NOT metabolized | Compound NOT metabolized | Compound NOT metabolized | Compound NOT metabolized | Compound NOT metabolized | Compound metabolized | Compound NOT metabolized | Compound NOT metabolized | Compound NOT metabolized | Compound metabolized | Compound NOT metabolized | Compound NOT metabolized | Compound NOT metabolized | Compound NOT metabolized | Compound metabolized | Compound NOT metabolized | Compound NOT metabolized | Compound NOT metabolized | O=C(NC(Cc1cc(=O)[nH]c2ccccc12)C(=O)O)c1ccc(Cl)cc1 (stereo not given) [REBAMIPIDE]
Compound metabolized | Compound NOT metabolized | Compound metabolized | Compound NOT metabolized | Compound metabolized | Compound metabolized | Compound metabolized | Compound metabolized | Compound metabolized | Compound metabolized | Compound metabolized | Compound metabolized | Compound metabolized | Compound metabolized | Compound metabolized | Compound metabolized | Compound metabolized | Compound metabolized | Compound NOT metabolized | Compound metabolized | CCOc1cc(CC(=O)N[C@@H](CC(C)C)c2ccccc2N2CCCCC2)ccc1C(=O)O [REPAGLINIDE]
Compound NOT metabolized | Compound NOT metabolized | Compound NOT metabolized | Compound NOT metabolized | Compound NOT metabolized | Compound NOT metabolized | Compound NOT metabolized | Compound NOT metabolized | Compound NOT metabolized | Compound NOT metabolized | Compound NOT metabolized | Compound NOT metabolized | Compound NOT metabolized | Compound NOT metabolized | Compound NOT metabolized | Compound NOT metabolized | Compound NOT metabolized | Compound NOT metabolized | Compound NOT metabolized | Compound NOT metabolized | CC(N)C12CC3CC(CC(C3)C1)C2 (stereo not given) [RIMANTADINE]

Further lines, the compound ahead of its results:

SMILES | Bacterial Biotransformation [1] | Bacterial Biotransformation [2] | Bacterial Biotransformation [3] | Bacterial Biotransformation [4] | Bacterial Biotransformation [5] | Bacterial Biotransformation [6] | Bacterial Biotransformation [7] | Bacterial Biotransformation [8] | Bacterial Biotransformation [9] | Bacterial Biotransformation [10] | Bacterial Biotransformation [11] | Bacterial Biotransformation [12] | Bacterial Biotransformation [13] | Bacterial Biotransformation [14] | Bacterial Biotransformation [15] | Bacterial Biotransformation [16] | Bacterial Biotransformation [17] | Bacterial Biotransformation [18] | Bacterial Biotransformation [19] | Bacterial Biotransformation [20]
CC(=O)CCCCn1c(=O)c2c(ncn2C)n(C)c1=O [PENTOXIFYLLINE] | Compound NOT metabolized | Compound NOT metabolized | Compound NOT metabolized | Compound NOT metabolized | Compound NOT metabolized | Compound NOT metabolized | Compound NOT metabolized | Compound NOT metabolized | Compound NOT metabolized | Compound metabolized | Compound NOT metabolized | Compound NOT metabolized | Compound NOT metabolized | Compound NOT metabolized | Compound metabolized | Compound NOT metabolized | Compound NOT metabolized | Compound NOT metabolized | Compound metabolized | Compound metabolized
CCCN1C[C@H](CSC)C[C@@H]2c3cccc4[nH]cc(c34)C[C@H]21.CS(=O)(=O)O [PERGOLIDE MESYLATE] | Compound NOT metabolized | Compound NOT metabolized | Compound NOT metabolized | Compound NOT metabolized | Compound NOT metabolized | Compound NOT metabolized | Compound NOT metabolized | Compound metabolized | Compound NOT metabolized | Compound NOT metabolized | Compound NOT metabolized | Compound NOT metabolized | Compound NOT metabolized | Compound NOT metabolized | Compound NOT metabolized | Compound NOT metabolized | Compound NOT metabolized | Compound NOT metabolized | Compound NOT metabolized | Compound NOT metabolized
CC(C)(C)N.CCC[C@H](N[C@@H](C)C(=O)N1[C@H](C(=O)O)C[C@@H]2CCCC[C@@H]21)C(=O)OCC [PERINDOPRIL ERBUMINE] | Compound NOT metabolized | Compound NOT metabolized | Compound metabolized | Compound NOT metabolized | Compound metabolized | Compound metabolized | Compound metabolized | Compound metabolized | Compound metabolized | Compound metabolized | Compound metabolized | Compound metabolized | Compound NOT metabolized | Compound metabolized | Compound metabolized | Compound metabolized | Compound NOT metabolized | Compound metabolized | Compound metabolized | Compound metabolized
